Data on one substance can be found in paper PMC10615883 (Angewandte Chemie (International ed. in English), 2023).

This assay has as its target Aβ40 aggregates (amyloid beta) (Homo sapiens, UniProt P05067). As to the kind of experiment: fluorescence titration with Aβ aggregates. The format is binding.

Chain of Aβ40 aggregates (amyloid beta) (P05067 672-711 limits assumed): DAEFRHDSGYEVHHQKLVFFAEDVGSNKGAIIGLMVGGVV

As to CRANAD-147, binding was put at a Kd of 2890 ± 430 nM.
